Data reported in paper PMC8468039, “Development of New Meridianin/Leucettine-Derived Hybrid Small Molecules as Nanomolar Multi-Kinase Inhibitors with Antitumor Activity” (Biomedicines, 2021).

What was measured:
Experiment in all cases: In vitro kinase inhibition assay (HotSpot, Reaction Biology)
Type in all cases: biochemical
PDGFRα = target: T1, PDGFRα (Homo sapiens, UniProt P16234); conditions: single dose of 10 µM; 10 µM ATP as printed; read-out: Percent Inhibition, PDGFRα
T1 construct: purchased Reaction Biology Corp

c-MET = target: T2, c-MET (Homo sapiens, UniProt P08581); conditions: single dose of 10 µM; 10 µM ATP as printed; read-out: Percent Inhibition, c-MET
T2 construct: purchased Reaction Biology Corp

KDR/VEGFR2 = target: T3, KDR/VEGFR2 (Homo sapiens, UniProt P35968); conditions: single dose of 10 µM; 10 µM ATP as printed; read-out: Percent Inhibition, KDR/VEGFR2
T3 construct: purchased Reaction Biology Corp

EGFR = target: T4, EGFR (Homo sapiens, UniProt P00533); conditions: single dose of 10 µM; 10 µM ATP as printed; read-out: Percent Inhibition, EGFR
T4 construct: purchased Reaction Biology Corp
T4 sequence (P00533 25-1210): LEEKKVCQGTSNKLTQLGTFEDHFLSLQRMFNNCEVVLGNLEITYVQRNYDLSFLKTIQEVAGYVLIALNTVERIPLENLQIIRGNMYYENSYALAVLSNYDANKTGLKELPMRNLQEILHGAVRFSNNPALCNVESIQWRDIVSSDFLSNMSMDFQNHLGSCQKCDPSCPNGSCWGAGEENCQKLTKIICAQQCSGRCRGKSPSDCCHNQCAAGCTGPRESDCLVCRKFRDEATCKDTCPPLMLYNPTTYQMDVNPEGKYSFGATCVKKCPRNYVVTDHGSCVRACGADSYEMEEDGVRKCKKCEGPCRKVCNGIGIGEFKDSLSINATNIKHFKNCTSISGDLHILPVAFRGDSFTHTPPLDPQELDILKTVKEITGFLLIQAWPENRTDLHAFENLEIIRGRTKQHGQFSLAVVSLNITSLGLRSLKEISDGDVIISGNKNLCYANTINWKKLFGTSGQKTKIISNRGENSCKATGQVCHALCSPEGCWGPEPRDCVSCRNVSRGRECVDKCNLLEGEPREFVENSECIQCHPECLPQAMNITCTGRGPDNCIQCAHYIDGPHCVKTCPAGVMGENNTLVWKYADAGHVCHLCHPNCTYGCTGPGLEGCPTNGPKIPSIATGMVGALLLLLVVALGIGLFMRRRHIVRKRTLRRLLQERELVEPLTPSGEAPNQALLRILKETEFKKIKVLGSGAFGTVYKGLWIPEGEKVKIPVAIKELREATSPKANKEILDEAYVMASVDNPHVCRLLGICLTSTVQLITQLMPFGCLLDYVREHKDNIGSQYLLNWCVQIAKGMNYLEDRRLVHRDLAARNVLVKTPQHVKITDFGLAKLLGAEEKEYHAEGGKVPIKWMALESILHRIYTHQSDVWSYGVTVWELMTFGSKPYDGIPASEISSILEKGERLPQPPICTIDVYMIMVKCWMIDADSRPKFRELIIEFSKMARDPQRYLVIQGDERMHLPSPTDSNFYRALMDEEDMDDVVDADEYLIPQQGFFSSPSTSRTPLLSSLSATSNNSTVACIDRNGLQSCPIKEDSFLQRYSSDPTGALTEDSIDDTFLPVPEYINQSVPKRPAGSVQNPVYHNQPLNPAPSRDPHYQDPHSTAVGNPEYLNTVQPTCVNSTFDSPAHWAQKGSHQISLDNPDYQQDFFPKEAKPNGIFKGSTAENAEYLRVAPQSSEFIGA

T1 sequence (P16234 24-1089): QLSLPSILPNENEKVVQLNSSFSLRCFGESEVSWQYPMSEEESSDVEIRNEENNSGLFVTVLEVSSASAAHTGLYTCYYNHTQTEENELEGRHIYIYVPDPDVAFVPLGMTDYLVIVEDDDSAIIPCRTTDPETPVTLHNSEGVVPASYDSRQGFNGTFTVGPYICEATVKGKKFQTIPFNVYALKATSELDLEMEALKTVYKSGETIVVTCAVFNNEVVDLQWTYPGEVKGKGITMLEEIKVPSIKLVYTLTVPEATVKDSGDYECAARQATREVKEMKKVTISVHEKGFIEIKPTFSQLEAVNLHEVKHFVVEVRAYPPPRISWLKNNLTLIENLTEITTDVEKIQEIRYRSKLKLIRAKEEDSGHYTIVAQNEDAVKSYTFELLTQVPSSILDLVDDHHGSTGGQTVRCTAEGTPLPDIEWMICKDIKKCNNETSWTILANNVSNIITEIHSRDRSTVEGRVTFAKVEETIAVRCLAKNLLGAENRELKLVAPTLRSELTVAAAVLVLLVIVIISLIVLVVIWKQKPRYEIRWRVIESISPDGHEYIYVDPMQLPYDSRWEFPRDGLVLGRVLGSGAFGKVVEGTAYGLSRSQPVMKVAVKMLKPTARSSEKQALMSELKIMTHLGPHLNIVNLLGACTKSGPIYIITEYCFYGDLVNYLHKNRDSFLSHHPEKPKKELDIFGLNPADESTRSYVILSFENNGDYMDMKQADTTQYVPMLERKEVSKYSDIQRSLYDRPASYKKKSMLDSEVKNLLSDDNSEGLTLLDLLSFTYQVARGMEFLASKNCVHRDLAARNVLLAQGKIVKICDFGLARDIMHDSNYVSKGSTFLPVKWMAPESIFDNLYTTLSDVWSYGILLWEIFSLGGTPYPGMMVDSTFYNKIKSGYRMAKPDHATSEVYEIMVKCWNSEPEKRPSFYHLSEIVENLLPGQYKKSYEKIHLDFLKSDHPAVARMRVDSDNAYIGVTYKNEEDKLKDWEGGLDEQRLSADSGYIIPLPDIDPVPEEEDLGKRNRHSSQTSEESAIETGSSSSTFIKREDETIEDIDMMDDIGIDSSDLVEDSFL
T2 sequence (P08581 25-1390): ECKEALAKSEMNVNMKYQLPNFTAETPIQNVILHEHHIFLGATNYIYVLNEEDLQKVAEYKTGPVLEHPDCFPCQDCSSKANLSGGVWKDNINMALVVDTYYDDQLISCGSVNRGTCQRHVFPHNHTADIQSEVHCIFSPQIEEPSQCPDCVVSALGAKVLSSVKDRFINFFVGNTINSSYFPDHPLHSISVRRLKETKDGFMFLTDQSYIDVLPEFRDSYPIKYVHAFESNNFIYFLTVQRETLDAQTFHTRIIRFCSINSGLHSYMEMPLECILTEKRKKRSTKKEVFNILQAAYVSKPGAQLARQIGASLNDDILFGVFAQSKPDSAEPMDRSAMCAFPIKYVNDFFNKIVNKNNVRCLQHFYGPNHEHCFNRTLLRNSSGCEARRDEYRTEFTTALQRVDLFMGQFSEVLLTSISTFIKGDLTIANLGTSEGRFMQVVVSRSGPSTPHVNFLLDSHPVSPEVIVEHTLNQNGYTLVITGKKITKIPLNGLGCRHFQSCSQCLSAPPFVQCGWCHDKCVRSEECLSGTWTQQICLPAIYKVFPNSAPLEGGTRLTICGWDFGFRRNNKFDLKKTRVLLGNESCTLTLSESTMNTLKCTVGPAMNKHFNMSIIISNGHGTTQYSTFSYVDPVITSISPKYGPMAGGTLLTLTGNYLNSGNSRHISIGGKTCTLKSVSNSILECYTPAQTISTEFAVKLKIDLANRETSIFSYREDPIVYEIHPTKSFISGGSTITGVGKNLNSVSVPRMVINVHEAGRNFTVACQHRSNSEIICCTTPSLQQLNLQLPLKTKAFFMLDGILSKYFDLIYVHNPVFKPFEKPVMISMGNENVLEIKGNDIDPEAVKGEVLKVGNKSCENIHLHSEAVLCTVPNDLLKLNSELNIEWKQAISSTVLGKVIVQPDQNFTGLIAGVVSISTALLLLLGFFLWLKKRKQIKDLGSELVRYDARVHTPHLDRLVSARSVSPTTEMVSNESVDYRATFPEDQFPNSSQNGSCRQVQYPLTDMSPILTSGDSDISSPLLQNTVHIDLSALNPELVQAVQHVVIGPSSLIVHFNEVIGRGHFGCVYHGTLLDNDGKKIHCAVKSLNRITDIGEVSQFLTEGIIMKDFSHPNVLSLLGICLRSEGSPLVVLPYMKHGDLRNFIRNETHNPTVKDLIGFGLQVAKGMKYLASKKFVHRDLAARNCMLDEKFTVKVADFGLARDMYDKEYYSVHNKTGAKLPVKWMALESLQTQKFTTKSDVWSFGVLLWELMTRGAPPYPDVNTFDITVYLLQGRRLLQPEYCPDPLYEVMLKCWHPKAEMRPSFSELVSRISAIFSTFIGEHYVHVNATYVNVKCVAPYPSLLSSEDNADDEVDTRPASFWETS
T3 sequence (P35968 20-1356): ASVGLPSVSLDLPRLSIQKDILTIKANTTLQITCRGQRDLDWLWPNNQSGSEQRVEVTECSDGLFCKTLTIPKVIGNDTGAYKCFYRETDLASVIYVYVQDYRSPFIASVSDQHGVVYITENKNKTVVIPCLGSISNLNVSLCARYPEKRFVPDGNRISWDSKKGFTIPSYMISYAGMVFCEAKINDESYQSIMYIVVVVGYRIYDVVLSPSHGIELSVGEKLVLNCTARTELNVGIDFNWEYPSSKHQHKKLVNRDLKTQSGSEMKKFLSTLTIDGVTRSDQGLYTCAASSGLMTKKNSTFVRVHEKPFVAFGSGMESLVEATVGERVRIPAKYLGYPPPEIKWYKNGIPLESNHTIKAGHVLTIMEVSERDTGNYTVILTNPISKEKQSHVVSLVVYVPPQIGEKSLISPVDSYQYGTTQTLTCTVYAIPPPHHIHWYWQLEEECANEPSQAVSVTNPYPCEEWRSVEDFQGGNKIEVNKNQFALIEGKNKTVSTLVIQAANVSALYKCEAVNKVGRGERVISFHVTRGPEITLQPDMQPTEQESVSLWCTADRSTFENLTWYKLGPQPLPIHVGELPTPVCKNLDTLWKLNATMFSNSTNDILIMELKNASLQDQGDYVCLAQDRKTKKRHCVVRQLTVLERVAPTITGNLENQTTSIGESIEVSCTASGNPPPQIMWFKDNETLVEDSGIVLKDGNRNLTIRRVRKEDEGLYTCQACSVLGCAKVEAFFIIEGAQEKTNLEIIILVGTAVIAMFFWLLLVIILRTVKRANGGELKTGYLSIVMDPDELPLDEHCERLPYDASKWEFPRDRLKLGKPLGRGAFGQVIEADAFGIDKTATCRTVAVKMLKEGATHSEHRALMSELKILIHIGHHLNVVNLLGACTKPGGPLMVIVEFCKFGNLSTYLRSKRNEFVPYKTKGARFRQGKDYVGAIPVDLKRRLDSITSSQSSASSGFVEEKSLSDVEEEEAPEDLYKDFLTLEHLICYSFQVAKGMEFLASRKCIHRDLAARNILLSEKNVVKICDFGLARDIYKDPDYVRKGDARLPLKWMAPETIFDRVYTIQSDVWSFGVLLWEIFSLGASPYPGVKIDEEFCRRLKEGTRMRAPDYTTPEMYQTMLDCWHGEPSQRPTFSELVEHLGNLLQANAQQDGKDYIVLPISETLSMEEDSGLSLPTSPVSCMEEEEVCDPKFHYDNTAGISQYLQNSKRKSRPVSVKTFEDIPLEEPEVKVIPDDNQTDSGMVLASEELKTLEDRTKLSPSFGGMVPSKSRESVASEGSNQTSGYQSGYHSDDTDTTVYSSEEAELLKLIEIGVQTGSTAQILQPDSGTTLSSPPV

**Q.** Which results are given for `COc1ccc(Oc2nc(Nc3ccc(N4CCOCC4)cc3)ncc2NC(=O)c2ccc3c(c2)OCO3)cc1` [5a, N-(4-(4-Methoxyphenoxy)-2-((4-morpholinophenyl)amino)pyrimidin-5-yl)benzo[d][1,3]dioxole-5-carboxamide]?
**A.** inhibition at 10 µM (PDGFRα): 24 ± 0.4%; inhibition at 10 µM (c-MET): 12 ± 13.7%; inhibition at 10 µM (KDR/VEGFR2): 7.9 ± 1.4%; inhibition at 10 µM (EGFR): 27 ± 0.9%
